Consider four compounds from patent publication US20030104024A1, “Urea and nitrogen based compounds as feeding stimulants/aggregants and masking agents of unpalatable chemicals for subterranean termites” (priority 2000, published 2003).

The test system of one test is C. formosanus. As to conditions: baits containing the termiticide; cited from earlier work.
The subject of a further test is Formosan termite. Put plainly: choice test of the colorant (feeding deterrence). Conditions: neutral red at 1000 ppm in bait matrix. It counts as in vivo, Coptotermes formosanus. As to the method:
(§1) The basic formulation of the matrix was prepared the same day that the experiment was set up, as reported by Rojas et al. (U.S. patent application Ser. Nos. 09/294,499 and 09/625,940, ibid). The colorant used was neutral red (Product number 72210, Fluka Chemical Corp., Milwaukee, Wis.) at 1000 ppm.

Test [1] has as its system Formosan subterranean termites. Put plainly: two choice feeding experiment: blank bait matrix vs. matrix with neutral red and urea. Type of test: in vivo, Coptotermes formosanus. As to conditions: urea 0-1280 ppm added to matrix with 1,000 ppm neutral red; groups of 300 termites; 30 d; FIG. 1. As to the method:
as §1
Under a laminar flow hood, the sterile cellulose was weighed using a Oahus portable plus scale (Fisher Scientific, Pittsburgh, Pa.) into a sterile 600 ml glass beaker. The colorant was weighed using a Mettler Toledo balance (PB303, Fisher Scientific, Pittsburgh, Pa.) and added to the pre-weighed cellulose. The cellulose with the colorant were homogenized using a sterile stainless steel spatula.
The sterile liquid mixture was measured into a 50 ml sterile screw cap conical tube (Product number 62.547.004 PP, Sarstedt, Inc., Newton, N.C.) and the urea was added at each of the following doses: 0, 10, 20, 40, 80, 160, 320, 640, and 1280 ppm; then it was added to the colored cellulose to a 7:3 ratio, (liquid-urea:colored-cellulose) and mixed to homogenize. […]
One treatment dish and one control dish were placed in the center of the top dish, taking care that the holes were facing each other and at least 1 cm apart. […] Matrix consumption was measured 30 d after by removing the left over bait matrix from the dishes and weighed it using a Sartorius balance (BP 211D, VWR Scientific, Atlanta, Ga.). […]

Molecules are shown by their SMILES.

Regarding `O=C(NC(=O)c1c(F)cccc1F)Nc1cc(Cl)c(OC(F)(F)C(F)F)c(Cl)c1` [hexaflumuron], in the test on C. formosanus, the “suppression of large colonies” value is given as “particularly effective”. On to `Cc1cc2nc3ccc(N(C)C)cc3nc2cc1N.Cl` [neutral red], for which the “feeding deterrence to the Formosan termite” value with Formosan termite is listed as “moderately deterrent”. `O=C(NC(=O)c1c(F)cccc1F)Nc1ccc(Cl)cc1` [diflubenzuron]: the “suppression of large colonies” value with C. formosanus was “particularly effective”.

In the case of `NC(N)=O` [urea], the “effect of urea on feeding deterrence induced by the colorant (consumption difference, control minus colored matrix)” value in test [1] was “significantly affected the feeding deterrence induced by the colorant”.
